{
  "source": "paper PMC11201590",
  "about": "“Enhancing Selective Antimicrobial and Antibiofilm Activities of Melittin through 6-Aminohexanoic Acid Substitution” (Biomolecules, 2024)",
  "key": {"MRSA": {"system": "MRSA", "format": "cell-based, Staphylococcus aureus", "description": "(§1) We assessed the antibiofilm activity of the peptides by determining their minimum biofilm eradication concentration (MBEC) and minimum biofilm inhibition concentration (MBIC) against drug-resistant bacteria, including MDRPA and MRSA, as previously described. A 96-well plate containing a subculture of 1 × 10^6 CFU/200 μL of bacteria was incubated overnight at 37 °C with or without peptides to test for biofilm inhibition and eradication. The untreated culture served as the negative control, and LL-37 was used as the control peptide."}, "MDRPA": {"system": "MDRPA", "format": "cell-based, Pseudomonas aeruginosa", "description": "as §1"}, "[1]": {"system": "S. epidermidis (KCTC 1917)", "format": "cell-based, Staphylococcus epidermidis", "settings": "CLSI broth dilution, MHB, 37 °C, 18 to 24 h", "description": "(§2) Peptides were assessed for their antibacterial activity against four Gram-positive and four Gram-negative bacteria, including drug-resistant strains, in accordance with Clinical and Laboratory Standards Institute (CLSI) guidelines. The minimum inhibitory concentration (MIC) was determined using a microtiter broth dilution method. All bacterial strains were incubated overnight at 37 °C. Cultured bacteria were then diluted 10-fold in Muller–Hinton Broth (MHB) medium (Difco, Detroit, MI, USA) and incubated for 3 h to reach mid-log phase. Following the establishment of mid-log phase cultures, bacteria were inoculated into sterile 96-well plates containing serially diluted peptides. The MIC was defined as the lowest concentration of peptides that prevented observable turbidity after incubation of the plates at 37 °C for 18 to 24 h."}, "[2]": {"system": "four Gram-positive and four Gram-negative bacteria", "format": "cell-based", "settings": "over the eight strains of Table 2", "description": "as §2"}, "[3]": {"system": "RAW 264.7 macrophage cells", "assay": "Cytotoxicity, MTT assay", "format": "cell-based, mouse", "settings": "4 µM peptide, RAW 264.7, 48 h, triplicate", "description": "We conducted the MTT assay (3-(4,5-dimethylthiazol-2-yl)-2,5-diphenyltetrazolium bromide) dye reduction experiment against RAW 264.7 macrophage cells to evaluate the cytotoxicity of the peptides, following previously published methods. RAW 264.7 cells were cultured for 24 h in the presence of 5% CO2 at 37 °C after seeding them in 96-well plates (2 × 10^4 cells/well). Subsequently, the peptides were treated at increasing concentrations and allowed to interact with the cells for 48 h. Following the incubation period, 20 μL of MTT solution (5 mg/mL in PBS) was added to each well, and the plate was further incubated at 37 °C for 4 h. The absorbance was then measured at 550 nm using a microplate ELISA reader after dissolving the formazan crystals in dimethyl sulfoxide (DMSO). Treatment with 0.1% Triton X-100 served as a positive control for 100% cytotoxicity. Each experiment was performed in triplicate."}, "S. aureus": {"system": "S. aureus", "assay": "SYTOX green uptake assay", "format": "cell-based, Staphylococcus aureus", "settings": "negative control", "description": "The SYTOX green experiment was utilized to assess the impact of peptides on bacterial membrane permeabilization. S. aureus cells in the mid-log phase (OD600 = 0.5) were washed three times in a buffer containing 20 mM glucose and 5 mM HEPES (pH 7.4). Subsequently, the bacterial cell suspensions were diluted in a buffer consisting of 5 mM HEPES, 100 mM KCl, and 20 mM glucose, at pH 7.4, to a concentration of 1 × 10^6 CFU/mL. After incubating for fifteen minutes in complete darkness, 0.5 μM SYTOX green was added to the bacterial suspensions. The Shimadzu fluorescence spectrophotometer RF-5300PC (Shimadzu Scientific Instruments, Kyoto, Japan) was employed to monitor SYTOX green fluorescence following the addition of peptides at a concentration of 2 × MIC. In the Shimadzu fluorescence spectrophotometer, the excitation and emission wavelengths were set at 485 nm and 520 nm, respectively."}, "E. coli (KCTC 1682)": {"system": "E. coli (KCTC 1682)", "assay": "Outer membrane permeability (NPN uptake)", "format": "cell-based, Escherichia coli", "settings": "varying peptide concentrations; NPN fluorescence", "description": "The fluorescent probe NPN (1-N-phenylnaphthylamine) was utilized to measure the outer membrane permeability of Gram-negative E. coli. Mid-log phase E. coli cells were diluted to an OD600 of 0.05 after being washed three times in a buffer containing 5 mM HEPES, 20 mM glucose, and 5 mM KCN at pH 7.4. A 1 mM stock solution of NPN was prepared by dissolving NPN in acetone. To achieve a final concentration of 10 µM, 30 μL of the stock solution was added to the bacterial suspension. […] Fluorescence was then measured over time after the peptides were added, with the concentration increasing until it reached a steady state. ONPG (o-nitrophenyl-β-[…]), a […] substrate used for cytoplasmic membrane β-galactosidase enzyme, was employed to assess the release of β-galactosidase from E. coli ML-35, aiming to determine the inner membrane permeability of peptides. A 1.5 mM solution of ONPG was added to a sample buffer consisting of 10 mM sodium phosphate and 100 mM NaCl at pH 7.4, which was used to suspend mid-log phase E. coli ML-35 bacteria to an OD600 of 0.5. […] The fluorescence of ONPG increases when it is hydrolyzed to form o-nitrophenol. The permeability of the inner membrane of E. coli ML-35 bacteria was assessed by the influx of ONPG, a substance that was then broken down into o-nitrophenol, forming a yellow product, by the presence of β-galactosidase in the cytoplasm."}, "[4]": {"settings": "8 to 16 µM, sentence does not tell MRSA and MDRPA apart"}},
  "note": "Like-named read-outs stand apart in the source and are kept apart here.",
  "data": [
    {"compound": "CC[C@H](C)[C@H](NC(=O)[C@H](CCCCN)NC(=O)[C@H](CCC(=O)O)NC(=O)[C@H](CCCCN)NC(=O)[C@H](CO)NC(=O)[C@H](CCCCN)NC(=O)[C@H](CCCNC(=N)N)NC(=O)[C@H](Cc1ccccc1)NC(=O)[C@H](Cc1ccccc1)NC(=O)[C@H](CC(=O)O)NC(=O)CNC(=O)[C@H](CC(C)C)NC(=O)[C@@H](N)CC(C)C)C(=O)NCC(=O)N[C@@H](CCCCN)C(=O)N[C@@H](CCC(=O)O)C(=O)N[C@@H](Cc1ccccc1)C(=O)N[C@@H](CCCCN)C(=O)N[C@@H](CCCNC(=N)N)C(=O)N[C@H](C(=O)N[C@H](C(=O)N[C@@H](CCC(N)=O)C(=O)N[C@@H](CCCNC(=N)N)C(=O)N[C@H](C(=O)N[C@@H](CCCCN)C(=O)N[C@@H](CC(=O)O)C(=O)N[C@@H](Cc1ccccc1)C(=O)N[C@@H](CC(C)C)C(=O)N[C@@H](CCCNC(=N)N)C(=O)N[C@@H](CC(N)=O)C(=O)N[C@@H](CC(C)C)C(=O)N[C@H](C(=O)N1CCC[C@H]1C(=O)N[C@@H](CCCNC(=N)N)C(=O)N[C@H](C(=O)N[C@@H](CCC(=O)O)C(=O)N[C@@H](CO)C(=O)O)[C@@H](C)O)C(C)C)[C@@H](C)CC)C(C)C)[C@@H](C)CC", "note": "[LL-37]", "values": [
      {"measurement": "inhibition of biofilm formation", "setting": "MRSA; [4]", "value": "approximately 50%"},
      {"measurement": "inhibition of biofilm formation", "setting": "MDRPA; [4]", "value": "approximately 50%"}
    ]},
    {"compound": "CC[C@H](C)[C@H](NC(=O)CN)C(=O)NCC(=O)N[C@@H](C)C(=O)N[C@H](C(=O)N[C@@H](CC(C)C)C(=O)N[C@@H](CCCCN)C(=O)N[C@H](C(=O)N[C@@H](CC(C)C)C(=O)N[C@H](C(=O)N[C@H](C(=O)NCC(=O)N[C@@H](CC(C)C)C(=O)N1CCC[C@H]1C(=O)N[C@@H](C)C(=O)N[C@@H](CC(C)C)C(=O)N[C@H](C(=O)N[C@@H](CO)C(=O)N[C@@H](Cc1c[nH]c2ccccc12)C(=O)N[C@H](C(=O)N[C@@H](CCCCN)C(=O)N[C@@H](CCCNC(=N)N)C(=O)N[C@@H](CCCCN)C(=O)N[C@@H](CCCNC(=N)N)C(=O)N[C@@H](CCC(N)=O)C(=O)N[C@@H](CCC(N)=O)C(N)=O)[C@@H](C)CC)[C@@H](C)CC)[C@@H](C)O)[C@@H](C)O)C(C)C)C(C)C", "note": "[Melittin]", "values": [
      {"measurement": "MIC", "setting": "[1]", "value": 8, "unit": "µM"},
      {"measurement": "GM, geometric mean of the MIC", "setting": "[2]", "value": 10.5, "unit": "µM"},
      {"measurement": "cell survival rate", "setting": "[3]", "value": "less than 10%"},
      {"measurement": "inhibition of biofilm formation", "setting": "MRSA; MRSA, 4 µM peptide", "value": "~90", "unit": "%"},
      {"measurement": "inhibition of biofilm formation", "setting": "MDRPA; MDRPA, 8 µM peptide", "value": "~90", "unit": "%"}
    ]},
    {"compound": "Buforin-2", "values": [
      {"measurement": "effect on SYTOX green fluorescence intensity", "setting": "S. aureus", "value": "did not affect fluorescence intensity"},
      {"measurement": "outer membrane permeability", "setting": "E. coli (KCTC 1682)", "value": "No appreciable outer membrane permeability"}
    ]}
  ]
}
